Drawing on patent publication US10806694B2, “Nanoparticles for photodynamic therapy, X-ray induced photodynamic therapy, radiotherapy, radiodynamic therapy, chemotherapy, immunotherapy, and any combination thereof” (The University of Chicago, priority 2014, dated 2020), this text covers PDT efficacy, excited state lifetime and weighted fluorescence lifetime for two molecules.

One series has as its system HT29 cells. The following applies: 8.5 μM dose, 100 J/cm^2 light dose; cited from earlier work.
A short description of series [1]: Fluorescence lifetime by Time-Correlated Single Photon Counting; fluorescence intensity. The class given is physicochemical. Here is the method:
The fluorescence spectra of H2DBP ligand and DBP-UiO NMOF were taken on a spectrofluorophotometer (RF-5301PC, Shimadzu Corporation, Kyoto, Japan).
Time-domain lifetimes were measured on a ChronosBH lifetime fluorimeter (ISS, Inc., Champaign, Ill., United States of America) using Time-Correlated Single Photon Counting (TCSPC) methods. The fluorimeter contained Becker-Hickl SPC-130 detection electronics and an HPM-100-40 Hybrid PMT detector. Tunable picosecond pulsed excitation was provided by a Fianium SC400-2 supercontiuum laser source with integrated pulse picker and AOTF. Emission wavelengths were selected with bandpass filters (Semrock and Chroma). The Instrument Response Function (IRF) was measured to be approximately 120 ps FWHM in a 1% scattering solution of Ludox LS colloidal silica. Lifetimes were fit via a forward convolution method in the Vinci control and analysis software.
Fluorescence spectra of suspensions of Hf-MOF (0.04 mM of L ligand) in water, DMF, and THF were taken with an excitation wavelength of 368.8 nm. […] Fluorescence lifetimes of Hf-MOF, Zr-MOF, and H2L suspensions in water were also examined.

Turning to PHOTOFRIN®, the PDT efficacy entry with HT29 cells is given as “modest PDT efficacy”.
In turn, `O=C(O)c1ccc(-c2c3ccccc3c(-c3ccc(C(=O)O)cc3)c3ccccc23)cc1` [H2L, 9,10-anthacenyl bis(benzoic acid)] came in with an excited state lifetime in series [1] (DMF solution or suspension) of 5.34 ns. In series [1] (suspensions in water), this molecule displayed a weighted fluorescence lifetime of 2.0 ns.
